One assay deals with T1, rat MCH1 receptor (Rattus norvegicus, UniProt P97639).
T1 construct: expressed in transfected cells
Description: Binding affinity (Ki) at the rat MCH1 receptor.

Assay [1] concerns the target T2, human Dopamine D2 receptor (Homo sapiens, UniProt P14416).
T2 construct: purchased BioSignal, Inc. (Montreal, Canada)
The assay can be described thus: Binding affinity at the human dopamine D2 receptor. Conditions: Table 3c; read-out: hD2 Ki. The method, boiled down:
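D5 receptor binding is run per one prior patent's protocol, while dopamine and α2 adrenergic binding follow another; human D1 and D2 receptors were supplied as expressing cell membranes.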

Assay [2] has as its target T3, human Histamine H1 receptor (Homo sapiens, UniProt P35367).
T3 construct: expressed in transfected cells
Description: Binding affinity at the human histamine H1 receptor. The settings on record: Table 3c; read-out: hH1 Ki. The method, boiled down:
(§1)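 Receptor binding read-out throughout; membranes expressing human D1 or D2 receptor were used for those two targets.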

For assay [3], the target named is T4, human Alpha-1a Adrenergic receptor (Homo sapiens, UniProt P35348).
T4 construct: expressed in transfected cells
T4 sequence (P35348 1-466): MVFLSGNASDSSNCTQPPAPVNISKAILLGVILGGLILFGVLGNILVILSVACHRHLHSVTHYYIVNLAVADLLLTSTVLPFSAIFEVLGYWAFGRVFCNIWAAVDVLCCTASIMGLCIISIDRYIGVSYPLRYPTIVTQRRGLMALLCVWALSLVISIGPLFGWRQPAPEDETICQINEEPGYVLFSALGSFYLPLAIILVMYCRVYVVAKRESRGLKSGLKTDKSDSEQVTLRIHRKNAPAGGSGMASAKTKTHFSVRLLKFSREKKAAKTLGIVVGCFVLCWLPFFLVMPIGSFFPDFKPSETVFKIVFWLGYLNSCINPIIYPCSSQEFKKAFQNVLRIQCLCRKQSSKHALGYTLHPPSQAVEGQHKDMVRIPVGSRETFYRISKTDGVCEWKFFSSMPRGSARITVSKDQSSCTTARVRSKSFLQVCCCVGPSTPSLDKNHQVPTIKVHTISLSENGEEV
Description: Binding affinity at the human alpha-1A adrenergic receptor. The settings on record: Table 3c; read-out: hAlpha-1a Ki. The method, boiled down: as §1

Assay [4] concerns micturition reflex, conscious male Sprague Dawley rats. The assay can be described thus: Continuous Slow Transvesicular Infusion (CSTI) rat model. In kind it is in vivo. Set-up: key to Effect of MCH1 antagonist in the CSTI model: B = Produced an increase in bladder capacity in rats relative to baseline capacity. Conditions: bladder capacity, intragastric. The method, then:
The effects of compounds on the micturition reflex were assessed in the “distension-induced rhythmic contraction” (DIRC), as described in previous publications (e.g. Maggi et al, 1987; Morikawa et al, 1992), and Continuous Slow Transvesicular Infusion (CSTI) models in rats. Male Sprague Dawley rats weighing approximately 300 g were used for the study. Rats were anaesthetized with pentobarbitone sodium (50 mg/kg, i.p). Through a median abdominal incision, bladder was exposed and a polyethylene cannula (PE 50) was introduced into the bladder through a small cut on the dome of the bladder and the cannula was secured with a purse string suture. The other end of the cannula was exteriorized subcutaneously at the dorsal neck area. Similarly, another cannula (PE 50) was introduced into the stomach through a paramedian abdominal incision with the free end exteriorized subcutaneously to the neck region. The surgical wounds were closed with silk 4-0 suture and the animal was allowed to recover with appropriate post surgical care. On the following day, the animal was placed in a rat restrainer. The open end of the bladder cannula was connected to a pressure transducer as well as infusion pump through a three-way stopcock. The bladder voiding cycles were initiated by continuous infusion of normal saline at the rate of 100 ul/min. The repetitive voiding contractions were recorded on a Power Lab on-line data acquisition software. After recording the basal voiding pattern for an hour, the test drug or vehicle was administered directly into stomach through the intragastric catheter and the voiding cycles were monitored for 5 hours. Micturition pressure and frequency were calculated before and after the treatment (at every 30 min interval) for each animal. Bladder capacity was calculated from the micturition frequency, based on the constant infusion of 100 ul/min. The effect of the test drug was expressed as a percentage of basal, pre-drug bladder capacity. WAY 100635 was used as positive control for comparison.

For assay [5], the target named is T5, human MCH1 receptor (Homo sapiens, UniProt Q99705). Description: Saturation and competition binding of [3H]Compound 10, membranes of Cos-7 cells transfected with MCH1. Also noted: expressed in transfected cells; host or cells: COS-7. The settings on record: room temperature, 90 min; read-out: Kd (Scatchard analysis of saturation binding). The procedure: Saturation equilibrium binding of [3H]Compound 10 to the human MCH1 receptor. Membrane preparations from Cos-7 cells transfected with MCH1 were incubated with varying concentrations of [3H]Compound 10 (SA: 56 Ci/mmol) at room temperature for 90 min, in a volume of 0.250 ml. The reaction was terminated by filtration in GF/C filters, and the radioactivity determined by scintillation counting. Non-specific binding was defined as the amount of radioactivity retained in the filter after incubating the reaction mixture in the presence of unlabeled Compound 10 ([…]).
T5 sequence (Q99705 whole entry): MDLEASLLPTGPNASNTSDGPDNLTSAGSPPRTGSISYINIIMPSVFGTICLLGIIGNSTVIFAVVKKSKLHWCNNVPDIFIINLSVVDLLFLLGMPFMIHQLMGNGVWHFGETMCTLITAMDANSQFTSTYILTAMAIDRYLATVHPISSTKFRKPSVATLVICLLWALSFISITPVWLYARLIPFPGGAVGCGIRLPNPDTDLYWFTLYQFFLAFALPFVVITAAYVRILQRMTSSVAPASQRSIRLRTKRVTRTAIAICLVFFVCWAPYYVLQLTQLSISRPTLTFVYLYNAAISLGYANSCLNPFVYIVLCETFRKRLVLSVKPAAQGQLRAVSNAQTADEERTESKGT
Competition binding of [3H]Compound 10 to the human MCH1 receptor. […] The reaction was terminated by filtration in GF/C filters and the radioactivity bound to the membrane was determined by scintillation counting.
[3H]Compound 10 was tested for its ability to bind to membrane preparations of cells expressing the human MCH1 receptor.

In assay [6] the target is T5, human MCH1 receptor. In kind it is cell-based. Set-up: expressed in transfected cells; host or cells: COS-7. The settings on record: agonist challenge. The procedure: Guidelines for cell preparation and assay of the second messenger inositol phosphate (IP) are described below for a typical protocol involving transiently transfected Cos-7 cells; For a 96 well microplate format assay, cells are plated at 70,000 cells per well and allowed to incubate for 24 hours after the transfection procedure. The cells are then labeled with 0.5 μCi [^3H]myo-inositol per micro-well over night at 37° C., 5% CO2. Immediately before the assay, the medium is removed and replaced with 90 μl PBS containing 10 mM LiCl. The plates are then incubated for 15 minutes at 37° C., […]. Following the incubation, the transfectants are challenged with agonist (10 μl/well; 10× concentration) for 30 minutes at 37° C., 5% CO2. The challenge is terminated and the cells lysed by the addition of 100 μl cold 5% v/v trichloroacetic acid (TCA), followed by an incubation at 4° C. for greater than 30 minutes. Total IPs are isolated from the lysate by ion exchange chromatography. Briefly, the lysed contents of the wells are transferred to a Multiscreen HV filter plate (Millipore) containing 100 μl Dowex AG1-X8 suspension (50% v/v, water:resin) (200-400 mesh, formate form). The filter plates are placed on a vacuum manifold to wash and elute the resin bed. Each well is first washed 2 times with 200 μl 5 mM myoinositol. Total [^3H]IPs are eluted with 75 μl of 1.2 M ammonium formate/0.1 M formic acid into Wallac 96-well plates. 200 μl of SuperMix scintillation cocktail is added to each well, mixed well, allowed to equilibrate and counted on a Micro Beta Trilux scintillation counter. (Note: The assay may be scaled to a 24 well format by simple adjustment of reagent volumes and employing individual chromatographic columns.)
The expression vector (pEXJ) containing the MCH1 cDNA was transfected by electroporation into Cos-7 cells in combination with an expression vector (pEXJ) containing the Gα16 subunit.

[7] abbreviates: Examples 38-141, read-out: Ki (nM) rMCH1.
The mark [8] stands for this setting: Examples 142-153, read-out: Ki (nM) rMCH1.

Where a name gives a salt, the structure may show the parent alone. Read-outs that look alike come from different tables or passages of the source.

Broadly, the Ki is the equilibrium dissociation constant of an inhibitor or competing ligand from its target.

T3 sequence (P35367 whole entry): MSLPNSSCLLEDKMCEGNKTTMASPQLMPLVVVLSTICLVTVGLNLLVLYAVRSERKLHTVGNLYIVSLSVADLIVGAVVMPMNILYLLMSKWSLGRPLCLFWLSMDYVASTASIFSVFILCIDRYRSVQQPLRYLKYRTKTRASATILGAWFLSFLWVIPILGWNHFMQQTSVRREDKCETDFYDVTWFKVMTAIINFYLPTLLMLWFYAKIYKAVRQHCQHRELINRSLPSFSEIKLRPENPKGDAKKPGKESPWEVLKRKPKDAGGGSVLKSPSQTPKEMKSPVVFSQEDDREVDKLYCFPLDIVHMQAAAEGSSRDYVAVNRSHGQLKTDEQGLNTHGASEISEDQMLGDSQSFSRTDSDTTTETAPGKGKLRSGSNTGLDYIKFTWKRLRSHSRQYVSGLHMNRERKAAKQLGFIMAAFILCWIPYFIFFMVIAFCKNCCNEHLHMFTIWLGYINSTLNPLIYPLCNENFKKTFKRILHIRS
T2 sequence (P14416 whole entry): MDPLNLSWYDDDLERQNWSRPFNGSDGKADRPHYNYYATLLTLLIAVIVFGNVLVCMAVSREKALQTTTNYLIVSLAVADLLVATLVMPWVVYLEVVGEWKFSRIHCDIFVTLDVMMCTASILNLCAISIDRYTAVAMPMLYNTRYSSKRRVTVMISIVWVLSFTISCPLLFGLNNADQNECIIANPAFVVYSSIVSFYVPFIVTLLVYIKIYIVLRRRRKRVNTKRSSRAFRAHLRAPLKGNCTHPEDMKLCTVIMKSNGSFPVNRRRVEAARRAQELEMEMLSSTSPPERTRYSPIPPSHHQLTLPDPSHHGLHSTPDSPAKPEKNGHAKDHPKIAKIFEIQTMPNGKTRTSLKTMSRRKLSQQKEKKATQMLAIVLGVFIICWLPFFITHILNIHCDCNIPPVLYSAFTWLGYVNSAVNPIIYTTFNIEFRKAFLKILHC
T1 sequence (P97639 whole entry): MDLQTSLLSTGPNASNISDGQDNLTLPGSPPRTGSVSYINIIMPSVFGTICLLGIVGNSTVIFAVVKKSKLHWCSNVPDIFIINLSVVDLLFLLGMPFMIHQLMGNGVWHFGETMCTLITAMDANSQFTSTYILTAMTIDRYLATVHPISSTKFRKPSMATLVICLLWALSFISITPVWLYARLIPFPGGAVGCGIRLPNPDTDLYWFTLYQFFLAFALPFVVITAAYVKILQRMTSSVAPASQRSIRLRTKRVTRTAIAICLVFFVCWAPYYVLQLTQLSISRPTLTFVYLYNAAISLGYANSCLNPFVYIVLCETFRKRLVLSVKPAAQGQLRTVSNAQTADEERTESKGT

For `CC(C)C(=O)Nc1cccc(C2CCN(CCCC(=O)c3ccc(Cl)cc3)CC2)c1` [Example 66], the Ki amounted to 2.8 nM at rat MCH1 receptor (setting [7]); 2.8 nM on rat MCH1 receptor (Table 3c, read-out: rMCH1 Ki); 862 nM in assay [1]; 461 nM in assay [2]; 19.4 nM in assay [3]. Moreover, the “Effect of MCH1 antagonist in the CSTI model” value (shortened to “Effect of MCH1 antagonist”) in assay [4] was “B”.
With `COCC1=C(C(=O)OC)[C@H](c2ccc(F)c(F)c2)N(C(=O)NCCCN2CCC(c3cccc(NC(C)=O)c3)CC2)C(=O)N1` [[3H]Compound 10, TRITIATED METHYL (4S)-3-{[(3-{4-[3-(ACETYLAMINO)PHENYL]-1-PIPERIDINYL}PROPYL)AMINO]CARBONYL}-4-(3,4-DIFLUOROPHENYL)-6-(METHOXYMETHYL)-2-OXO-1,2,3,4-TETRAHYDRO-5-PYRIMIDINECARBOXYLATE], the Kd on human MCH1 receptor [5] was determined as 0.18 nM.
Turning to `COc1ccc2[nH]c(-c3ccccc3)c(CCCN3CCC(c4cccc(NC(=O)C(C)C)c4)CC3)c2c1` [Example 147], the Ki on rat MCH1 receptor (setting [8]) is 2.3 nM. For the same compound, the “Effect of MCH1 antagonist” value in assay [4] is given as “B”.
For `CC(=O)C1=C(C)NC(=O)N(C(=O)NCCCN2CCC(c3cccc(NC(=O)C(C)C)c3)CC2)[C@H]1c1cc(F)c(F)c(F)c1` [Example 155, (+)-5-ACETYL-N-(3-{4-[3-(ISOBUTYRYLAMINO)PHENYL]-1-PIPERIDINYL}PROPYL)-4-METHYL-2-OXO-6-(3,4,5-TRIFLUOROPHENYL)-3,6-DIHYDRO-1(2H)-PYRIMIDINECARBOXAMIDE. HYDROCHLORIDE SALT], the “Effect of MCH1 antagonist” value in assay [4] is on record as “B”.
In the case of `O=C(CCCN1CCC(O)(c2ccc(Cl)cc2)CC1)c1ccc(F)cc1` [haloperidol], the “dose-responsiveness of inositol phosphate formation” value on human MCH1 receptor [6] is on record as “No dose-responsiveness”.
In the case of `COCC1=C(C(=O)OC)[C@H](c2ccc(F)c(F)c2)N(C(=O)NCCCN2CCC(c3cccc(NC(=O)C(C)C)c3)CC2)C(=O)N1` [Example 43, METHYL (4S)-4-(3,4-DIFLUOROPHENYL)-3-{[(3-{4-[3-(ISOBUTYRYLAMINO)PHENYL]-1-PIPERIDINYL}PROPYL)AMINO]CARBONYL}-6-(METHOXYMETHYL)-2-OXO-1,2,3,4-TETRAHYDRO-5-PYRIMIDINECARBOXYLATE], the Ki at rat MCH1 receptor (setting [7]) was 0.23 nM; on rat MCH1 receptor (Table 3c, read-out: rMCH1 Ki), 0.23 nM; in assay [1], 3570 nM; in assay [2], 10800 nM; in assay [3], 21.9 nM. Moreover, the “Effect of MCH1 antagonist” value in assay [4] is reported as “B”.
On to `Cc1ccc(NC(=O)C(C)C)cc1C1CCN(Cc2ccc(Oc3ccc(F)c(F)c3)cc2)CC1` [Example 152], for which the Ki on rat MCH1 receptor (setting [8]) came to 2.2 nM. Further, the “Effect of MCH1 antagonist” value in assay [4] was “B”.
Regarding “dynorphin A1-13: compound tested for its ability to activate MCH1 (YGGFLRRIRPKLK)”, the “dose-responsiveness of inositol phosphate formation” value in the assay with human MCH1 receptor [6] was “No dose-responsiveness”.
Consider `Cc1ccc(C(=O)CCCN2CCC(c3cccc(NC(=O)C(C)C)c3)CC2)cc1C` [Example 58], for which the Ki at rat MCH1 receptor (setting [7]) worked out at 3.9 nM; at rat MCH1 receptor (Table 3c, read-out: rMCH1 Ki), 3.9 nM; in assay [1], 2840 nM; in assay [2] it was 700 nM; in assay [3] it was 32.1 nM. Besides, the “Effect of MCH1 antagonist” value in assay [4] is listed as “B”.
For `CCn1c2ccccc2c2cc(CN3CCC(c4cccc(NC(=O)C(C)C)c4)CC3)ccc21` [Example 148], the Ki at rat MCH1 receptor (setting [8]) is 1.7 nM. Further, the “Effect of MCH1 antagonist” value in assay [4] is “B”.
As for `CC(C)C(=O)Nc1cccc(C2CCN(CCCNC(=O)C(c3ccccc3)c3ccccc3)CC2)c1` [Example 153], on rat MCH1 receptor (setting [8]), the Ki was 2.9 nM. For the same compound, in assay [4], the “Effect of MCH1 antagonist” value was “B”.

For the origin of these results see patent US20040038855A1 (priority 1999, published 2004).
